In ChEMBL document CHEMBL3044541, “Control of crown rot-causing fungal pathogens of banana by inorganic salts and a surfactant” (Crop Prot, 2007):
Calls of active or inactive are those of the source. No cut-off for these calls is given here.

Legend:
[1] = test system: Thielaviopsis paradoxa; assay: Antifungal activity against Ceratocystis paradoxa assessed as inhibition of conidium germination at 5 g/l incubated for 15 min followed by compound washout measured after 2 days by microscopic analysis in absence of surfactant APSA 80; assay type: functional, organism-based
[2] = test system: Colletotrichum musae; assay: Antifungal activity against Colletotrichum musae assessed as inhibition of conidium germination at 5 g/l incubated for 15 min followed by compound washout measured after 2 days by microscopic analysis in absence of surfactant APSA 80; assay type: functional, organism-based
[3] = test system: Lasiodiplodia theobromae; assay: Antifungal activity against Lasiodiplodia theobromae assessed as inhibition of conidium germination at 5 g/l incubated for 15 min followed by compound washout measured after 2 days by microscopic analysis in absence of surfactant APSA 80; assay type: functional, organism-based
[4] = test system: Fusarium verticillioides; assay: Growth inhibition of Fusarium verticillioides assessed as inhibition of mycelial growth up to 160 g/l incubated for 15 min followed by compound washout measured after 7 days in absence of surfactant APSA 80; assay type: functional
[5] = test system: Fusarium verticillioides; assay: Growth inhibition of Fusarium verticillioides assessed as inhibition of mycelial growth up to 160 g/l incubated for 15 min followed by compound washout measured after 7 days in presence of surfactant APSA 80; assay type: functional, organism-based
[6] = test system: Colletotrichum musae; assay: Growth inhibition of Colletotrichum musae assessed as inhibition of mycelial growth up to 160 g/l incubated for 15 min followed by compound washout measured after 7 days in absence of surfactant APSA 80; assay type: functional
[7] = test system: Colletotrichum musae; assay: Growth inhibition of Colletotrichum musae assessed as inhibition of mycelial growth up to 160 g/l incubated for 15 min followed by compound washout measured after 7 days in presence of surfactant APSA 80; assay type: functional, organism-based
[8] = test system: Thielaviopsis paradoxa; assay: Growth inhibition of Ceratocystis paradoxa assessed as inhibition of mycelial growth up to 160 g/l incubated for 15 min followed by compound washout measured after 7 days in absence of surfactant APSA 80; assay type: functional, organism-based
[9] = test system: Thielaviopsis paradoxa; assay: Growth inhibition of Ceratocystis paradoxa assessed as inhibition of mycelial growth up to 160 g/l incubated for 15 min followed by compound washout measured after 7 days in presence of surfactant APSA 80; assay type: functional
[10] = test system: Colletotrichum musae; assay: Antifungal activity against Colletotrichum musae assessed as inhibition of conidium germination at 5 g/l incubated for 15 min followed by compound washout measured after 7 days by microscopic analysis in presence of surfactant APSA 80; assay type: functional, organism-based
[11] = test system: Thielaviopsis paradoxa; assay: Antifungal activity against Ceratocystis paradoxa assessed as inhibition of conidium germination at 5 g/l incubated for 15 min followed by compound washout measured after 7 days by microscopic analysis in presence of surfactant APSA 80; assay type: functional, organism-based
[12] = test system: Lasiodiplodia theobromae; assay: Antifungal activity against Lasiodiplodia theobromae assessed as inhibition of conidium germination at 5 g/l incubated for 15 min followed by compound washout measured after 7 days by microscopic analysis in presence of surfactant APSA 80; assay type: functional, organism-based
[13] = test system: Fusarium verticillioides; assay: Antifungal activity against Fusarium verticillioides assessed as inhibition of conidium germination at 5 g/l incubated for 15 min followed by compound washout measured after 2 days by microscopic analysis in absence of surfactant APSA 80; assay type: functional, organism-based
[14] = test system: Fusarium verticillioides; assay: Antifungal activity against Fusarium verticillioides assessed as inhibition of conidium germination at 5 g/l incubated for 15 min followed by compound washout measured after 7 days by microscopic analysis in presence of surfactant APSA 80; assay type: functional, organism-based

Compound | inhibition [1] | inhibition [2] | inhibition [3] | Activity [4] | Activity [5] | Activity [6] | Activity [7] | Activity [8] | Activity [9] | inhibition [10] | inhibition [11] | inhibition [12] | inhibition [13] | inhibition [14]
O=C([O-])O.[Na+] | Active | Active | Active | inactive | inactive | inactive | inactive | inactive | inactive | Active | Active | Active | Active | Active
O=C([O-])[O-].[Na+].[Na+] | – | – | – | inactive | – | inactive | – | – | – | – | – | – | – | –
